System: formalin induced pain responses
Experiment: Formalin Test (formalin induced pain responses, flinches and licks)
Format: in vivo, rat
Details: late phase 20 to 30 min after formalin
Protocol: Evaluation of analgesic and anti-inflammatory effects of compositions of claim 1 (See Hunskaar S and Hole K. (1987) Pain 30(1):103-14.)
In the Formalin Test a 5% solution of formaldehyde is injected subcutaneously to rat paw which produces a biphasic pain response over a test period of 60 minutes: an early phase lasting the first 5 min and a late phase lasting from 20 to 30 min after the injection of formalin. The early phase is due to a direct effect of […] on nociceptors and the late phase seems to be an inflammatory response with inflammatory pain that can be inhibited by anti-inflammatory drugs. For determining effects of compositions on these response phases two measurements were taken with three minutes interval for determining the number of flinches and licks per minute.
The treatments administered consists of (Human equivalent dose)
The above ingredients were suspended in 2.5 ml saline solution to feed by gavage one hour before injection of formalin and pain response was measured for 45 minutes. The data were collected in duplicate and average was taken.

## C=C(C)[C@@H]1CCC(C)=C[C@H]1c1c(O)cc(CCCCC)cc1O [Cannabidiol (CBD), Cannabidiol]
Human equivalent dose 3 mg
  percent inhibition in formalin induced pain responses: 8%
Human equivalent dose 6.25 mg
  percent inhibition in formalin induced pain responses: 40%
Human equivalent dose 12.5 mg
  percent inhibition in formalin induced pain responses: 40%
Human equivalent dose 25 mg
  percent inhibition in formalin induced pain responses: 90%
Human equivalent dose 50 mg
  percent inhibition in formalin induced pain responses: 90%

## CC(=O)Oc1ccccc1C(=O)O [Aspirin]
Human equivalent dose 100 mg
  percent inhibition in formalin induced pain responses: 30%

## O[C@H]1[C@H](O)[C@@H](O)[C@H](O)[C@@H](O)[C@H]1O [Inositol]
Human equivalent dose 31.5 mg
  percent inhibition in formalin induced pain responses: 12%
Human equivalent dose 60.2 mg
  percent inhibition in formalin induced pain responses: 30%
Human equivalent dose 125 mg
  percent inhibition in formalin induced pain responses: 34%
Human equivalent dose 250 mg
  percent inhibition in formalin induced pain responses: 40%
Human equivalent dose 500 mg
  percent inhibition in formalin induced pain responses: 85%

## CC(=O)Nc1ccc(O)cc1 [Paracetamol]
Human equivalent dose 500 mg
  percent inhibition in formalin induced pain responses: 50%
Human equivalent dose 1000 mg
  percent inhibition in formalin induced pain responses: 70%

— patent US20210251934A1, “NOVEL COMPOSITIONS FOR THE TREATMENT OF INFLAMMATORY DISEASES” (SystaMedic Inc., priority 2018, published 2021)
